As usually defined, the pEC50 is the EC50 on a negative log10 scale, so that one unit is a factor of ten. Low readings indicate a large EC50, high ones a small EC50. The fraction unbound is the share of the substance not bound to proteins or other matrix.

pEC50: −log10 of the molar value. *1 amine or outer side, *2 acyl side, *3 side chain or, on linkers, in order; H or OH if unused. Where a SMILES comes first, the peptide text is derived from it. Side-chain parts run from the residue outwards. [ ]: non-standard residue; d: D form. The star is where a group is joined. C20 diacid = O=C(O)CCCCCCCCCCCCCCCCCCC(=O)*; γGlu = O=C(O)[C@H](CCC(=O)[*:2])N[*:1]; AEEA = NCCOCCOCC(=O)O; Aib = CC(C)(N)C(=O)O

These results are taken from patent US20240228572A1 (i2o Therapeutics, Inc., priority 2020, published 2024).

The target in data set [1] is T1, rat GCGR (Rattus norvegicus, UniProt P30082).
T1 construct: A cDNA fragment encoding the full-length open reading frame of the rat GCGR; expressed in transfected cells; host or cells: CHO-K1, pcDNA3.1+, Lipofectamine 2000
The data set can be described thus: cAMP accumulation assay, CHO-K1 cells expressing rat GCGR. Type of data set: cell-based. The text has this: In the presence of the non-specific cAMP/cGMP phosphodiesterase inhibitor, 3-isobutyl-1-methylxanthine (IBMX), accumulating cAMP can be measured in vitro using common detection methods. Thus, it is possible to estimate an in vitro potency (pEC50) for peptides activating each of these receptors using fit dose-response curves for cAMP accumulation.
A cDNA fragment encoding the full-length open reading frame of the cynomolgus monkey GLP-1R (Genebank accession #XM_028847603 was cloned into pcDNA3.1+ for expression in CHO-K1 cells. A cDNA fragment encoding the full-length open reading frame of the human GCGR (Genebank accession #NM_000160 was cloned into pcDNA3.1+ for expression in CHO-K1 cells. A cDNA fragment encoding the full-length open reading frame of the rat GCGR (Genebank accession #NM_12091 was cloned into pcDNA3.1+ for expression in CHO-K1 cells. A cDNA fragment encoding the full-length open reading frame of the cynomolgus monkey GCGR (Genebank accession #XM_005585255 was cloned into pcDNA3.1+ for expression in CHO-K1 cells. […]
Peptides were serially diluted 4-fold in assay buffer to final concentrations ranging from 1×10^−9 M to 9.5×10^−16 M. Two assay controls consisting of 50 mcM forskolin (cAMP system maximum) or assay buffer only (cAMP system minimum) were also prepared. […] Plates were read on an Envision fluorescent plate reader (PerkinElmer). […]
(In general: cAMP levels reflect the balance of adenylyl cyclase and phosphodiesterase activity.)

The target in data set [2] is serum albumin (Rattus norvegicus, UniProt P02770). The data set can be described thus: Fraction unbound (fu) in plasma by surface plasmon resonance, rat. Type of data set: in vitro ADME. Conditions: SPR binding to serum albumin. How it is done: (§1) Conventional methods of measuring plasma protein binding, such as equilibrium dialysis, ultrafiltration and ultracentrifugation, are not reliable with peptides because of their tendency to adsorb to the surface of plastic tubing, dialysis membranes and molecular weight cut-off filters. As a result, the extent to which acylated peptides bind to serum albumin was evaluated using surface plasmon resonance (SPR).

Data set [3] concerns the target serum albumin (Homo sapiens, UniProt P02768). The data set can be described thus: Fraction unbound (fu) in plasma by surface plasmon resonance, human. Particulars: SPR binding to serum albumin. Type of data set: in vitro ADME. How it is done:
as §1

Sequence of serum albumin (Rattus norvegicus, UniProt P02770) (P02770 25-608): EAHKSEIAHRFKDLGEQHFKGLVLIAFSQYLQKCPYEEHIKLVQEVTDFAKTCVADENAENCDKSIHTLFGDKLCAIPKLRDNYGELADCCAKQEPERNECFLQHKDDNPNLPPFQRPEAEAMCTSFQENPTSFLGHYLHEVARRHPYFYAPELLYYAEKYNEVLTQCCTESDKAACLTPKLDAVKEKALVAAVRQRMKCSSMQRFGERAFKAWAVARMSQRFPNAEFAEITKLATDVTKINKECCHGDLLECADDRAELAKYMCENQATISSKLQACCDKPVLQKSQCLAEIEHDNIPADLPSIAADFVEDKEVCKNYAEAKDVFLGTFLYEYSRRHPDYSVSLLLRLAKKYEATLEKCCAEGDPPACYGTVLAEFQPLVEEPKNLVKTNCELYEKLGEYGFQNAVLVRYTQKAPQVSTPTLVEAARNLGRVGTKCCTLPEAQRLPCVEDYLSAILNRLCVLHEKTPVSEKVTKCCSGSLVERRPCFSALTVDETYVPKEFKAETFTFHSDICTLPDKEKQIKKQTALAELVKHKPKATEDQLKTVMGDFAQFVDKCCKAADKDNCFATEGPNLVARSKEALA
Sequence of serum albumin (Homo sapiens, UniProt P02768) (P02768 25-609): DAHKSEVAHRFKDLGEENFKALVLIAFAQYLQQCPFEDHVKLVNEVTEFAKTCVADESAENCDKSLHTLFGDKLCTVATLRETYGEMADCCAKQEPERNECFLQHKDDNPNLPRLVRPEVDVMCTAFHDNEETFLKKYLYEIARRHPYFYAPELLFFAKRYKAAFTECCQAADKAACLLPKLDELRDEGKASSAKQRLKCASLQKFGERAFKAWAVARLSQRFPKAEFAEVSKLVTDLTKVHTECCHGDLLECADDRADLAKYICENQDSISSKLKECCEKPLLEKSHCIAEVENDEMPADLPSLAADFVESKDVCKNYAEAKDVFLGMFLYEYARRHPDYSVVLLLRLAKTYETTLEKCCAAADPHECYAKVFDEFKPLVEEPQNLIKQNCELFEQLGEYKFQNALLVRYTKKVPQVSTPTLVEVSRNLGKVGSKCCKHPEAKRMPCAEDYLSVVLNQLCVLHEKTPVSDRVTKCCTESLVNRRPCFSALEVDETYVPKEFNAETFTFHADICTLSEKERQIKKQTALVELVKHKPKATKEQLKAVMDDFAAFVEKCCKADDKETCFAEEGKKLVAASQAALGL
T1 sequence (P30082 27-485): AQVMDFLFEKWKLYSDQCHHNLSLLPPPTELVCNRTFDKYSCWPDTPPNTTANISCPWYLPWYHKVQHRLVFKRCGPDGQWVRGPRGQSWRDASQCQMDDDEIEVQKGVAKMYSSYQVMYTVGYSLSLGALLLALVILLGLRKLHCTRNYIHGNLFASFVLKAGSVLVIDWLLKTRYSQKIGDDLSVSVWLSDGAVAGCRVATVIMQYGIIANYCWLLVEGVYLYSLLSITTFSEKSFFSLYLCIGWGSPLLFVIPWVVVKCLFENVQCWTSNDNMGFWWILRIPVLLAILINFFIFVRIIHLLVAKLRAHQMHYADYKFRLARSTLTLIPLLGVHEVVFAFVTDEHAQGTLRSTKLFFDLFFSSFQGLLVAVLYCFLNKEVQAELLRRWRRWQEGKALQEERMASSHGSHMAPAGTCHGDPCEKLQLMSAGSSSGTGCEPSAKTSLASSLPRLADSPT

For the molecule `CC(C)C[C@H](NC(=O)[C@H](Cc1ccc(O)cc1)NC(=O)[C@H](CCCCN)NC(=O)[C@H](CO)NC(=O)[C@H](Cc1ccc(O)cc1)NC(=O)[C@H](CC(=O)O)NC(=O)[C@H](CO)NC(=O)[C@@H](NC(=O)[C@H](Cc1ccccc1)NC(=O)[C@@H](NC(=O)CNC(=O)[C@H](Cc1c[nH]cn1)NC(=O)[C@H](CO)NC(=O)[C@@H](N)Cc1ccc(O)cc1)[C@@H](C)O)[C@@H](C)O)C(=O)N[C@@H](CC(=O)O)C(=O)NC(C)(C)C(=O)N[C@@H](CCCCN)C(=O)N[C@@H](Cc1ccc(O)cc1)C(=O)N[C@@H](C)C(=O)N[C@@H](CCC(N)=O)C(=O)N[C@@H](CCCCNC(=O)CC[C@H](NC(=O)CC[C@H](NC(=O)COCCOCCNC(=O)CCCCCCCCCCCCCCCCCCC(=O)O)C(=O)O)C(=O)O)C(=O)N[C@@H](Cc1ccccc1)C(=O)N[C@H](C(=O)NC(C)(C)C(=O)N[C@@H](Cc1c[nH]c2ccccc12)C(=O)N[C@@H](CC(C)C)C(=O)N[C@@H](CCC(=O)O)C(=O)N[C@@H](CC(=O)O)C(=O)N[C@@H](CCC(=O)O)C(=O)N1CCC[C@H]1C(=O)N[C@@H](CO)C(=O)N[C@@H](CO)C(=O)NCC(=O)N[C@@H](C)C(=O)N1CCC[C@H]1C(=O)N1CCC[C@H]1C(=O)N1CCC[C@H]1C(=O)N[C@@H](CO)C(=O)O)C(C)C` [Compound A6] (H-YSHGTFTSDYSKYLD[Aib]KYAQK([γGlu-γGlu-AEEA-C20 diacid])FV[Aib]WLEDEPSSGAPPPS-OH; N-terminus assumed), in data set [1], the pEC50 is 10.30. In addition, the unbound share (fraction unbound) is 0.0083 in data set [2] and 0.0072 in data set [3].
